≈ marks a conversion by molar mass, not a printed value. Where “and” joins values, the source holds several entries; their conditions need not be identical. Equal values may be shown once. Read-outs that look alike come from different tables or passages of the source. Residues, ends and D or L forms follow the SMILES beside them.
Key:
A. baumannii FADDI-AB034 = type: cell-based, Acinetobacter baumannii
Procedure: (§1) MICs were determined in cation-adjusted Mueller–Hinton broth (CaMHB) by the broth micro-dilution method against ATCC strains and clinical isolates. MICs in the presence of Survanta® were determined as described above against P. aeruginosa ATCC 27853. In the 100 μL of fresh CaMHB containing polymyxins, 10% Survanta® (v/v, 2.5 mg/mL phospholipids) was added. MICs in the presence and absence of Survanta® were compared to determine the effect of binding to lung surfactant on the antibacterial activity of polymyxins.

A. baumannii ATCC 19606 = type: cell-based, Acinetobacter baumannii
Procedure: as §1

A. baumannii FADDI-AB030 = type: cell-based, Acinetobacter baumannii
Procedure: as §1

P. aeruginosa ATCC 27853 [1] = assay: Neutropenic mouse bloodstream infection model; type: in vivo; details: single IV dose 4 mg/kg; for Log10 CFU/mL blood at 4 h, Mean / Δlog10 CFU/mL blood (mean) / Log10 CFU/mL blood at 4 h, single mouse: 4 h; for Δlog10 CFU/mL blood (mean): treated minus control, mean of replicates; for Δlog10 CFU/mL blood (mean) / Log10 CFU/mL blood at 4 h, single mouse / Delta Log10 CFU/mL blood at 4 h, single mouse: 4 mg/kg; for Delta Log10 CFU/mL blood at 4 h, single mouse: treated mouse minus mean of vehicle mice
Procedure: The experimental methodology for the neutropenic mouse bloodstream infection model was described previously. Briefly, 7-week-old female Swiss mice (22–28 g) were rendered neutropenic by intraperitoneal administration of cyclophosphamide, 4 days (150 mg/kg) and 1 day (100 mg/kg) prior to inoculation. Bloodstream infection was established by intravenous administration of a 50 µL bolus of early log-phase bacterial suspension (4 × 10^8 CFU/mL). Lipopeptide solutions were prepared at 1 mg/mL (free base) in sterile saline. At 2 h after inoculation, mice (n = 3) were injected intravenously with lipopeptide solution at 4 mg/kg (free base) or saline control. At 0 and 4 h after administration, blood was collected, diluted serially in sterile saline, and plated on nutrient agar plates. Agar plates were incubated at 37 °C overnight for bacterial colony counting and the bacterial load in the blood (log10 CFU/mL) in each mouse was calculated. In vivo efficacy was calculated as the difference of the log10 CFU/mL blood values between the treated mice and the saline-treated mice at 4 h post dosing (Δlog10 CFU/mL blood = log10 [treated] CFU/mL blood − log10[control] CFU/mL blood).

P. aeruginosa ATCC 27853 [2] = type: cell-based, Pseudomonas aeruginosa
Procedure: as §1

[3] = system: P. aeruginosa FADDI-PA025; type: cell-based, Pseudomonas aeruginosa
Procedure: as §1

[4] = system: P. aeruginosa FADDI-PA038; type: cell-based, Pseudomonas aeruginosa
Procedure: as §1

Swiss mice, kidney = assay: Nephrotoxicity in mice (kidney histopathology); type: in vivo, mouse; details: for Kidney histopathology (SQS Score): n = 3
Procedure: The experimental methodology has been previously reported by our group. Briefly, individual lipopeptide solutions were prepared in sterile saline (6 mg/mL). Swiss mice (female, 7-week-old, 22–28 g) were subcutaneously administered at 12 mg/kg in, 6 doses every 2 h to reach a total dose of 72 mg/kg (n = 3). For high-dose nephrotoxicity experiments, mice were intraperitoneally administered at 20 or 25 mg/kg, in 6 doses every 2 h to reach a total dose of 120 mg/kg (n = 6) or 150 mg/kg (n = 3). At 20 h after the last dose, the right kidney from each mouse was collected and placed in 10% buffered (pH 7.4) formalin (Sigma-Aldrich, Castle Hill, NSW, Australia). The kidneys were subjected to histological examination at the Australian Phenomics Network-Histopathology and Organ Pathology (University of Melbourne, Parkville, VIC, Australia), who was blind to the treatment groups.

[5] = system: K. pneumoniae FADDI-KP032; type: cell-based, Klebsiella pneumoniae
Procedure: as §1

[6] = system: K. pneumoniae FADDI-KP065; type: cell-based, Klebsiella pneumoniae
Procedure: as §1

[7] = 72 mg/kg/d subcutaneously in six divided doses every 2 h

| Compound | MIC A. baumannii FADDI-AB034 (A. baumannii FADDI-AB034; FADDI-AB034) [µg/mL] | MIC A. baumannii ATCC 19606 (A. baumannii ATCC 19606; ATCC 19606) [µg/mL] | MIC A. baumannii FADDI-AB030 (A. baumannii FADDI-AB030; FADDI-AB030) [µg/mL] | Log10 CFU/mL blood at 4 h, Mean (P. aeruginosa ATCC 27853 [1]) [Log10 CFU/mL blood] | Δlog10 CFU/mL blood (mean) (P. aeruginosa ATCC 27853 [1]) [log10 CFU/mL blood] | Log10 CFU/mL blood at 4 h, single mouse (P. aeruginosa ATCC 27853 [1]) | Delta Log10 CFU/mL blood at 4 h, single mouse (P. aeruginosa ATCC 27853 [1]) | MIC P. aeruginosa ATCC 27853 (P. aeruginosa ATCC 27853 [2]; ATCC 27853) [µg/mL] | MIC P. aeruginosa FADDI-PA025 ([3]; FADDI-PA025) [µg/mL] | MIC P. aeruginosa FADDI-PA038 ([4]; FADDI-PA038) [µg/mL] | Kidney histopathology (SQS Score) (Swiss mice, kidney; [7]) | Kidney histopathology, mice with the SQS score (Swiss mice, kidney; mouse, in vivo) | MIC K. pneumoniae FADDI-KP032 ([5]; FADDI-KP032) [µg/mL] | MIC K. pneumoniae FADDI-KP065 ([6]; FADDI-KP065) [µg/mL] | further results |
| --- | --- | --- | --- | --- | --- | --- | --- | --- | --- | --- | --- | --- | --- | --- | --- |
| CC[C@@H]1NC(=O)[C@@H](CC(C)C)NC(=O)[C@H](CCN)NC(=O)[C@@H](NC(=O)[C@H](CN)NC(=O)[C@@H](NC(=O)[C@H](CCN)NC(=O)c2ccc(Cl)cc2)[C@@H](C)O)CCNC(=O)[C@H]([C@@H](C)O)NC(=O)[C@H](CCN)NC(=O)[C@H](CCN)NC1=O [Lipopeptide F378] (HELM PEPTIDE1{[O=C(c1ccc(Cl)cc1)[*:2]].[Dab].T.[NC[C@H](N[*:1])C(=O)[*:2]].[Dab].[Dab].[dL].[Abu].[Dab].[Dab].T}$PEPTIDE1,PEPTIDE1,5:R3-11:R2$$$V2.0) | 0.25 (≈ 0.222 µM) | 1 (≈ 0.888 µM) | 1 (≈ 0.888 µM) | 4.71 | −3.23 | 4.78 Log10 CFU/mL blood and 4.64 Log10 CFU/mL blood | -3.16 Log10 CFU/mL blood and -3.30 Log10 CFU/mL blood | 0.5 (≈ 0.444 µM) | 2 (≈ 1.78 µM) | 1 (≈ 0.888 µM) | 0 (SQS 0 = no significant change (overall score, <1)) | 3/3 | 0.25 (≈ 0.222 µM) | 1 (≈ 0.888 µM) |  |
| CC[C@@H]1NC(=O)[C@@H](CC(C)C)NC(=O)[C@H](CCN)NC(=O)[C@@H](NC(=O)[C@H](CN)NC(=O)[C@@H](NC(=O)[C@H](CCN)NC(=O)c2cccc(Cl)c2)[C@@H](C)O)CCNC(=O)[C@H]([C@@H](C)O)NC(=O)[C@H](CCN)NC(=O)[C@H](CCN)NC1=O [Lipopeptide F371] (HELM PEPTIDE1{[O=C(c1cccc(Cl)c1)[*:2]].[Dab].T.[NC[C@H](N[*:1])C(=O)[*:2]].[Dab].[Dab].[dL].[Abu].[Dab].[Dab].T}$PEPTIDE1,PEPTIDE1,5:R3-11:R2$$$V2.0) |  |  |  | 4.61 | −3.33 | 4.74 Log10 CFU/mL blood and 4.86 Log10 CFU/mL blood and 4.22 Log10 CFU/mL blood | -3.20 Log10 CFU/mL blood and -3.08 Log10 CFU/mL blood and -3.71 Log10 CFU/mL blood |  |  |  | 0 (SQS 0 = no significant change (overall score, <1)) |  |  |  | MIC A. baumannii FADDI-AB034 (A. baumannii FADDI-AB034; carbapenem-resistant isolate): 1 µg/mL (≈ 0.888 µM); MIC A. baumannii ATCC 19606 (A. baumannii ATCC 19606): 4 µg/mL (≈ 3.55 µM); MIC A. baumannii FADDI-AB030 (A. baumannii FADDI-AB030; carbapenem-resistant isolate): 1 µg/mL (≈ 0.888 µM); MIC P. aeruginosa ATCC 27853 (P. aeruginosa ATCC 27853 [2]): 0.5 µg/mL (≈ 0.444 µM); MIC P. aeruginosa FADDI-PA025 ([3]; MDR clinical isolate): 1 µg/mL (≈ 0.888 µM); MIC P. aeruginosa FADDI-PA038 ([4]; carbapenem-resistant isolate): 2 µg/mL (≈ 1.78 µM); Kidney histopathology, mice with the SQS score (Swiss mice, kidney; [7]): 3/3; MIC K. pneumoniae FADDI-KP032 ([5]; carbapenem-resistant isolate): 0.5 µg/mL (≈ 0.444 µM); MIC K. pneumoniae FADDI-KP065 ([6]; carbapenem-resistant isolate): 1 µg/mL (≈ 0.888 µM) |
| CCCCCCCC(=O)N[C@@H](CCN)C(=O)N[C@H](C(=O)N[C@@H](CCN)C(=O)N[C@H]1CCNC(=O)[C@H]([C@@H](C)O)NC(=O)[C@H](CCN)NC(=O)[C@H](CCN)NC(=O)[C@H]([C@@H](C)O)NC(=O)[C@@H](C(C)C)NC(=O)[C@H](CCN)NC1=O)[C@@H](C)O [Lipopeptide F229] (HELM PEPTIDE1{[CCCCCCCC(=O)[*:2]].[Dab].T.[Dab].[Dab].[Dab].[dV].T.[Dab].[Dab].T}$PEPTIDE1,PEPTIDE1,5:R3-11:R2$$$V2.0) | >32 | >32 | 32 (≈ 28.3 µM) |  |  |  |  | >32 | >32 | >32 | 0 (SQS 0 = no significant change (overall score, <1)) | 3/3 | 1 (≈ 0.885 µM) | 2 (≈ 1.77 µM) |  |
